{"source": "ChEMBL document CHEMBL4673176", "about": "“Virulence attenuating combination therapy: a potential multi-target synergy approach to treat Pseudomonas aeruginosa infections in cystic fibrosis patients” (RSC Med Chem, 2020)", "key": {"[1]": {"assay": "Competitive inhibition of FAM-labelled PscF (69 to 85 residues) binding to Pseudomonas aeruginosa PscE/PscG by fluorescence polarization"}, "Pseudomonas aeruginosa [2]": {"test_system": "Pseudomonas aeruginosa", "assay": "Antibacterial activity against Pseudomonas aeruginosa PAO1 infected in C57BL/6J mouse assessed as mouse survival at 100 uM administered intranasally at the time of infection and every 12 hrs and measured over 96 hrs", "type": "functional", "settings": "PAO1, inhaled or nasal"}, "[3]": {"biological_target": "T1, Transcriptional regulator MvfR (Pseudomonas aeruginosa PA14) (UniProt A0A072ZLE6)", "T1 sequence (whole entry)": "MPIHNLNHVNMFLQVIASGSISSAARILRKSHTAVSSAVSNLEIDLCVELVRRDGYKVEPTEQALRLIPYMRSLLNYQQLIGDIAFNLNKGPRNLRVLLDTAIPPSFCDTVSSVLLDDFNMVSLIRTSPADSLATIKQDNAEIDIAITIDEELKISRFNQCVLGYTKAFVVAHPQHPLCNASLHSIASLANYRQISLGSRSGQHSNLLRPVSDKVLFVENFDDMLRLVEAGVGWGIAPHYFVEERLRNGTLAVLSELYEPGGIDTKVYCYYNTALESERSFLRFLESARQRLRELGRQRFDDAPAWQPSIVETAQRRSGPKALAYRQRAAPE", "assay": "Inhibition of PqsR in Pseudomonas aeruginosa PA14 assessed as potentiation of tobramycin-mediated reduction in biofilm CFU at 10 uM incubated for 24 hrs relative to tobramycin alone"}, "[4]": {"biological_target": "T1, Transcriptional regulator MvfR (Pseudomonas aeruginosa PA14)", "assay": "Inhibition of PqsR in Pseudomonas aeruginosa PA14 assessed as potentiation of meropenem-mediated reduction in biofilm CFU at 10 uM incubated for 24 hrs relative to meropenem alone"}, "Pseudomonas aeruginosa [5]": {"test_system": "Pseudomonas aeruginosa", "assay": "Inhibition of quorum sensing system in Pseudomonas aeruginosa MCC-2080 assessed as reduction in biofilm formation incubated for 24 hrs by crystal violet staining based UV-Vis spectrophotometric method relative to control"}, "[6]": {"assay": "Inhibition of PqsR/PqsD in Pseudomonas aeruginosa PA14 assessed as reduction in biofilm formation by crystal violet assay"}}}
{"smiles": "Cc1cccc2c3c(ccc12)C1=C(C(=O)C3=O)[C@@H](C)CO1", "note": "[DIHYDROTANSHINONE I]", "values": [{"measurement": "IC50", "setting": "[1]", "value": 0.68, "unit": "µM"}, {"measurement": "survival at 100 µM", "setting": "Pseudomonas aeruginosa [2]", "value": 90, "unit": "%"}]}
{"smiles": "O=C(CSc1nc2cc([N+](=O)[O-])ccc2[nH]1)Nc1ccc(Oc2ccccc2)cc1", "values": [{"measurement": "fold change (FC)", "setting": "[3]", "value": 17}, {"measurement": "fold change (FC)", "setting": "[4]", "value": 178}]}
{"smiles": "O=c1c(O)c(-c2ccccc2)oc2cc(O)cc(O)c12", "values": [{"measurement": "IC85", "setting": "Pseudomonas aeruginosa [5]", "value": 100, "unit": "µM"}]}
{"smiles": "CS(=O)(=O)c1nccc(-n2cnnn2)n1", "values": [{"measurement": "IC50", "setting": "[6]", "value": 100, "unit": "µM"}]}
